Source: US20260083134A1, “MEANS AND METHODS FOR CONTROLLING PATHOGENS AND PESTS IN PLANTS” (APHEA.BIO NV, priority 2020, published 2026)

Assays:
Type in all cases: cell-based
Puccinia striiformis = Puccinia striiformis liquid-based screening assay of extract fractions; conditions: compound identified in active HPLC fraction; active when percentage of inhibition superior to 50%
Zymoseptoria tritici = tested on: Zymoseptoria tritici
Fusarium graminearum = conditions: compound identified in active HPLC fraction; active when halo diameter superior to 5 mm

Row | Compound | Active against: (Puccinia striiformis) | Active against: (Zymoseptoria tritici) | Active against: (Fusarium graminearum)
1 | CCCCCCCCCCCCCC(=O)NCCC[N+](C)(C)CC(=O)[O-] [N-Myristylamidopropyl-N,N-dimethylbetaine] | P. striiformis | Z. tritici | F. graminearum
2 | C[C@@H]1C/C=C/C=C/C=C/C=C/[C@H](O[C@@H]2O[C@H](C)[C@@H](O)[C@H](N)[C@@H]2O)C[C@@H]2O[C@](O)(C[C@@H](O)C[C@H]3O[C@@H]3/C=C/C(=O)O1)C[C@H](O)[C@H]2C(=O)O [Pimaricin/Natamycin, Pimaricin, reference compound] | P. striiformis | Z. tritici | F. graminearum
3 | C=C/C(C)=C/[C@H](C)C(=O)C[C@H](O)CC1CC(=O)NC(=O)C1 [Streptimidone] | P. striiformis | Z. tritici | F. graminearum
4 | Albofungin | P. striiformis | Z. tritici | F. graminearum
5 | Enactin Ia/Ib | P. striiformis | Z. tritici | F. graminearum
6 | Lauramidopropyl betaine | P. striiformis | Z. tritici | F. graminearum
